This note sets out measurements from patent US4820836A, “Prostacyclin (PGI2) analogues” (Shionogi & Co., Ltd., priority 1986, dated 1989).

Like-named read-outs stand apart in the source and are kept apart here.

This experiment concerns Platelet Agglutination. Kind of experiment: In vitro inhibition of platelet agglutination (rabbit platelet rich plasma, aggregometer) induced by arachidonic acid, collagen or ADP. It counts as cell-based. The conditions noted are these: Oryctolagus cuniculus, rabbit PRP. The protocol: The inhibitory activity of the representative compounds of the present invention against platelet agglutination is shown in the following in vitro test.
Mature male rabbits (NIBS-JW, RABITON Institute Inc., weighing 2.2-2.7 kg) were used. Under sodium pentobarbital anesthesia (Somnopentyl, Pitman Movre, about 25 mg/Kg, i.v.), blood was with from the carotid artery by cannulation into centrifuge tubes containg 1/10 vol of a 3.8% sodium citrate solution. (The total volume in each tube was adjusted to 8 ml.) The blood in a tube was gentyl mixed by turing and centrifuged for 10 minutes at 210 g at 20° C. to give platelet rich plasma (PRP). The remaining blood was further centrifuged at 3,000 rpm (about 1,900 g) for 10 minutes at 20° C. to give platelet-poor plasma (PPP).
PRP was diluted with PPP to prepare a blood sample whose platelet number was 50-55×10^4 /μl. The sample was then subjected to a platelet agglutination test.
The platelet agglutination was examined by the method of Bron [Born, G.V.R., Nature, 194, 927-929 (1962)], using a Type AUTO RAM-61 aggregometer, (Rika Denki Co., Ltd., Tokyo). A volume of 400 μl of PRP, whose platelet number was adjusted to 50-55×10^4 /μl, was placed in a measuring cuvette and set in the aggregometer. PRP was warmed at 37° C. for 1 minute with stirring at 1,200 rpm, and then a solution of the test compound [dimethylsulfoxide solution (2 μl) of the compound+saline (48 μl); in case of prostaglandin I2 (PGI2) and prostaglandin E1 (PG E1), a solution of each compound (50 μl) in Tris buffer] was added thereto. Exactly 2 minutes later, 50 μl of ADP Pharmacia, U.S.A., (final concentration: 30 μM) or collagen (final muchen, muchen, concentration: 20 μg/ml) or arachidonic acid (sodium salt, Sigma, final concentration (500 μM) was added as a platelet agglutinating agent, and the change in light transmission caused by platelet agglutination was recorded.
The light transmissions of PRP and PPP were taken as 0% and 100% agglutination, respectively, and the maximum light transmission after addition of an agglutinating agent was made to the maxiumum agglutination. The inhibition rate of the platelet agglutination was expressed as the percentage of the maximum agglutination by a test compound to that by a control (Vehicle added group).
Prostaglandin (PG) I2 and E1 are served as standard substances.

The mark [1] stands for this setting: ADP, final 30 μM, 37° C., compound in dimethylsulfoxide+saline, read-out: Inhibition Activity against Platelet Agglutination [50% Inhibition Concentration (μM)], ADP.
Setting [2] is: arachidonic acid, final 500 μM, 37° C., compound in dimethylsulfoxide+saline, read-out: Inhibition Activity against Platelet Agglutination [50% Inhibition Concentration (μM)], Arachidonic acid.
[3] abbreviates: collagen, final 20 μg/ml, 37° C., compound in dimethylsulfoxide+saline, read-out: Inhibition Activity against Platelet Agglutination [50% Inhibition Concentration (μM)], Collagen.

On to `CCCCC[C@H](O)/C=C/[C@@H]1[C@H]2CC(SCCCC(=O)OC)=N[C@H]2C[C@H]1O` [Compound 18c, reference compound], for which the IC50 under setting [1] came out at 0.074 µM, the IC50 under setting [2] came out at 0.16 µM and the IC50 under setting [3] is 0.062 µM.

`C#C[C@]12C[C@@H](O)[C@H](/C=C/[C@@H](O)C3CCCCC3)[C@H]1CC(SCCCC(=O)OCC)=N2` [17(S)g-e]: the IC50 worked out at 0.033 µM under setting [1], 0.146 µM under setting [2] and 0.0094 µM under setting [3].

In the case of `CCCCC[C@H](O)/C=C/[C@H]1[C@H](O)C[C@]2(CC)N=C(SCCCC(=O)OCC)C[C@H]12` [17(S)d], the IC50 under setting [1] is 18 µM, the IC50 under setting [2] was determined as 160 µM and the IC50 under setting [3] is 9 µM.

As for `CC#C[C@]12C[C@@H](O)[C@H](/C=C/[C@@H](O)CCCCC)[C@H]1CC(SCCCC(=O)O)=N2` [19(S)h, sodium 4-[7-hydroxy-6-[(3S)-3-hydroxy-1-octenyl]-1-(1-propynyl)-2-azabicyclo[3.3.0]oct-2-en-3-yl]thiobutanoate], the IC50 under setting [1] stood at 0.0042 µM, the IC50 under setting [2] stood at 0.0035 µM and the IC50 under setting [3] was 0.0028 µM.

As for `CCCCC[C@H](O)/C=C/[C@H]1[C@H](O)C[C@]2(C)N=C(SCCCC(=O)OCC)C[C@H]12` [17(S)e], the IC50 amounted to 1.6 µM under setting [1], 4.4 µM under setting [2] and 0.6 µM under setting [3].

For the compound `C#C[C@]12C[C@@H](O)[C@H](/C=C/[C@@H](O)CCCCC)[C@H]1CC(SCCCC(=O)OC)=N2` [18(S)g, methyl 4-[1-ethynyl-7-hydroxy-6-[(3S)-3-hydroxy-1-octenyl]-2-azabicyclo[3.3.0]oct-2-en-3-yl]thiobutanoate], the IC50 runs as follows: under setting [1], 0.0241 µM; under setting [2], 0.081 µM; under setting [3], 0.011 µM.

With `C#C[C@]12C[C@@H](O)[C@H](/C=C/[C@@H](O)CCCCC)[C@H]1CC(SCCCC(=O)O)=N2` [19(S)g, Sodium 4-[1-ethynyl-7-hydroxy-6-[(3S)-3-hydroxy-1-octenyl]-2-azabicyclo[3.3.0]oct-2-en-3-yl]thiobutanoate], the IC50 reads like this: under setting [1], 0.0049 µM; under setting [2], 0.0093 µM; under setting [3], 0.0093 µM.

In the case of `C#C[C@]12C[C@@H](O)[C@H](/C=C/[C@H](O)C3CCCCC3)[C@H]1CC(SCCCC(=O)OCC)=N2` [17(R)g-e], the IC50 was 13.4 µM under setting [1], 60.6 µM under setting [2] and 3 µM under setting [3].

Consider `CCCCC[C@H](O)/C=C/[C@H]1[C@H](O)CC(=O)[C@@H]1CCCCCCC(=O)O` [PGE1, prostaglandin E1, reference compound], for which the IC50 came out at 0.066 µM (pH 7.4, ADP, final 30 μM, Tris buffer, pH7.4, read-out: Inhibition Activity against Platelet Agglutination [50% Inhibition Concentration (μM)], ADP); 0.25 µM (pH 7.4, arachidonic acid, final 500 μM, Tris buffer, pH7.4, read-out: Inhibition Activity against Platelet Agglutination [50% Inhibition Concentration (μM)], Arachidonic acid); 0.052 µM (pH 7.4, collagen, final 20 μg/ml, Tris buffer, pH7.4, read-out: Inhibition Activity against Platelet Agglutination [50% Inhibition Concentration (μM)], Collagen).

Turning to `CC#C[C@]12C[C@@H](O)[C@H](/C=C/[C@@H](O)CCCCC)[C@H]1CC(SCCCC(=O)OCC)=N2` [17(S)h], the IC50 under setting [1] was 0.006 µM, the IC50 under setting [2] was found to be 0.01 µM and the IC50 under setting [3] amounted to 0.0013 µM.

On to `CCCCC[C@H](O)/C=C/[C@@H]1[C@H]2C/C(=C/CCCC(=O)O)O[C@H]2C[C@H]1O` [PGI2, prostaglandin I2], for which the IC50 (pH 8, ADP, final 30 μM, Tris buffer, pH8.0, read-out: Inhibition Activity against Platelet Agglutination [50% Inhibition Concentration (μM)], ADP) came out at 0.014 µM; the IC50 (pH 8, arachidonic acid, final 500 μM, Tris buffer, pH8.0, read-out: Inhibition Activity against Platelet Agglutination [50% Inhibition Concentration (μM)], Arachidonic acid) is 0.054 µM; the IC50 (pH 8, collagen, final 20 μg/ml, Tris buffer, pH8.0, read-out: Inhibition Activity against Platelet Agglutination [50% Inhibition Concentration (μM)], Collagen) was 0.019 µM; the IC50 (pH 10, ADP, final 30 μM, Tris buffer, pH10.0, read-out: Inhibition Activity against Platelet Agglutination [50% Inhibition Concentration (μM)], ADP) worked out at 0.016 µM; the IC50 (pH 10, arachidonic acid, final 500 μM, Tris buffer, pH10.0, read-out: Inhibition Activity against Platelet Agglutination [50% Inhibition Concentration (μM)], Arachidonic acid) is 0.09 µM; the IC50 (pH 10, collagen, final 20 μg/ml, Tris buffer, pH10.0, read-out: Inhibition Activity against Platelet Agglutination [50% Inhibition Concentration (μM)], Collagen) turned out to be 0.02 µM.

In the case of `C=C[C@]12C[C@@H](O)[C@H](/C=C/[C@@H](O)C3CCCC3)[C@H]1CC(SCCCC(=O)OCC)=N2` [17(S)l-f], the IC50 is 0.3 µM under setting [1], 1.2 µM under setting [2] and 0.12 µM under setting [3].

With `C=C[C@]12C[C@@H](O)[C@H](/C=C/[C@H](O)C3CCCC3)[C@H]1CC(SCCCC(=O)OCC)=N2` [17(R)l-f], the IC50 by setting is: under setting [1], 142 µM; under setting [2], 443 µM; under setting [3], 54 µM.
